# Assay results published in patent US4430355A, “Condensed isothiazolo-3 (2H)-one-1-1-dioxides” (priority 1977, dated 1984).
# Structures can show the parent of a compound that is named as a salt.
# Key:
# [1] = test system: Salmonella typhimurium TA 98, TA 100, TA 1535, TA 1537, TA 1538; assay: AMES-system, test for mutagenic effects, Salmonella typhimurium; type: cell-based
# Procedure: Compounds C and D were tested in the AMES-system [Mutation Research 31, 347-364 (1975)] with regard to their mutagenic properties. In order to show the whole spectrum of induced molecular DNA-damages (base substitutions, frame-shift mutations, deletions) the auxotrophic bacterial strains Salmonella typhimurium TA 98, TA 100 and Escherichia coli WP 2 (P) were used as genetic indicators. The strains Salmonella typhimurium TA 1535, TA 1537 and TA 1538 were additionally used in the test of compound C.
# (§1) The test for all microorganisms were carried out in a way such that the influence of a microsomal enzyme system, together with the corresponding co-factors, could be tested with regard to the test substance, and to determine the differences in enzyme induction. The tests were performed without an activating system and in the presence of an activating system. For the in vitro-activation, S-9 supernatants (fraction of the endoplasmatic reticulum) of normal, i.e. not pre-treated rats and of Aroclor 1254 (500 mg/kg) induced rats were used. From the S-9 induced fraction, 3 different concentration levels were tested.
# (§2) The substance concentrations of compound C were 0.1 and 0.5 mgm/plate and the concentrations of compound D were 5, 10, 15 and 20 mg/plate.
# [2] = Determination of the threshold concentration (taste testers, Schutz and Pilgrim method); design: key: mean of 5 testers; 0 = not sweet, 3 = very sweet
# Procedure: From novel compounds A, B, C, D, E and F and from known comparison compounds U, V and W aqueous solutions in concentrations of 1:12500, 1:25000, 1:50000, 1:100000 and 1:200000 were prepared and evaluated by each of 5 taste testers according to the following criteria: Very sweet (=3 points); medium sweet (=2 points), slightly sweet (=1 point) and not sweet (=0 point). The tests were carried out according to the method of H. G. Schutz and F. J. Pilgrim [Food Research 22, 206 (1957)]. The dilution with perceptible sweetness was defined as the concentration at which the average value reached the evaluation points 1.0 or higher.
# anesthetized cats = assay: Blood pressure, heart rate and respiration of anesthetized cats; type: in vivo; details: anesthetized cats, 1.0, 3.0 and 10.0 mg/kg i.v.
# Procedure: (§3) The compound C had no effect on the contractility and the frequency of the isolated, beating atrium of the rat heart. When compound C was given in doses of 1.0 and 3.0 and 10.0 mg/kg i.v. no effect on blood pressure, heart rate and respiration of anesthetized cats could be observed. At concentrations of 1×10^-4 mol/liter compound C had no effect on the ADP-induced, thrombine-induced and collagen-induced aggregation of the thrombozytes in the platelet-rich plasma of healthy test persons.
# water-loaded male rats = assay: Secretion of Na+, K+, Cl- and liquid in water-loaded rats; type: in vivo; details: 200 mgm/kg p.o.
# [3] = test system: isolated, beating atrium of the rat heart; assay: Isolated, beating atrium
# Procedure: as §3
# mice [4] = assay: Rotating cylinder test, muscle-relaxing and coordination inhibitory effects; type: in vivo; details: 200 mgm/kg p.o.
# rat = assay: Orienting acute toxicity, oral, rat; type: in vivo; details: 5000 mgm/kg oral, 6 animals
# Procedure: The acute toxicity was determined after oral administration to male and female mice and to male and female rats. The substances were given in an aqueous solution or as a suspension in tylose.
# mice [5] = assay: Electroshock convulsion; type: in vivo; details: 200 mgm/kg p.o.
# bacteria = assay: Bacteriostatic effect
# male mice = assay: Hypothermia caused by reserpine; type: in vivo
# Source text: It also has no influence on the hypothermia of male mice, which is caused by reserpine.
# Body temperature = type: in vivo; details: rats, 200 mg/kg p.o.; 1, 2, 3 and 4 hours after administration
# Procedure: (§4) Also, the test of the motility of rats in electric activity cages according to Fuhrer and Feldhofer [Arzneim. Forsch. […] Moreover, no effect regarding the body temperatures of the rats at a dosage of 200 mg/kg p.o. could be observed. The measurements were made after 1, 2, 3 and 4 hours after oral administration of the substance; one control group only received the distilled water solvent.
# [6] = Evaluation of taste quality
# Source text: They often have a side-taste or after-taste. Novel compounds A to F are, however, characterized by a very pure sweet taste.
# rats = assay: Spontaneous motility in electric activity cages (Fuhrer and Feldhofer); type: in vivo
# Procedure: as §4
# microorganism growth = assay: Series dilution essay, inhibition of the microorganism growth; type: cell-based; details: highest dosages (C 0.5 mgm/plate, D 20 mg/plate)
# Procedure: as §2
# [7] = test system: thrombozytes in the platelet-rich plasma of healthy test persons; assay: Thrombozyte aggregation in platelet-rich plasma; type: cell-based; details: 1×10^-4 mol/liter
# Procedure: as §3
# mice [8] = assay: Tail clamp test according to Haffner, defensive reactions to pain stimuli; type: in vivo; details: 200 mgm/kg p.o.
# mice [9] = assay: Hexobarbital narcosis, loss of the righting reflex; type: in vivo; details: 25 mgm/kg p.o.
# Source text: Compound C has no effect on the hexobarbital narcosis in mice.
# [10] = test system: intestinal tract of the rat; assay: Ulcerations in the intestinal tract; type: in vivo; details: 3 times 200 mgm/kg p.o.
# mice [11] = assay: Spontaneous motility in light beam cages; type: in vivo; details: same dosage (200 mgm/kg p.o.)
# eye of the rabbit = assay: Local compatibility in the eye; type: in vivo; details: 1% solution
# [12] = test system: Escherichia coli WP 2 (P); assay: AMES-system, test for mutagenic effects, Escherichia coli; type: cell-based
# Procedure: In order to show the whole spectrum of induced molecular DNA-damages (base substitutions, frame-shift mutations, deletions) the auxotrophic bacterial strains Salmonella typhimurium TA 98, TA 100 and Escherichia coli WP 2 (P) were used as genetic indicators.
# as §1, with “For the in vitro-activation, S-9 supernatants (fraction of the endoplasmatic reticulum) of normal, i.e. not pre-treated rats and of Aroclor 1254 (500 mg/kg) induced rats were used.” left out
# fungi = assay: Fungistatic effect
# [13] = Determination of the relative sweetening power in comparison to saccharose (taste testers, 3% saccharose solution); details: compared with 3% aqueous solution of saccharose
# Source text: The relative sweetening power (often also defined as degree of sweetness) of sweetening agents in comparison to saccharose (cane sugar) varies with the concentrations within wide limits. Thus, in the usual concentrations (corresponding to a 2-10% solution of saccharose) the relative sweetening power of saccharin varies from 200 to 700. Therefore, for the determination of the relative sweetening power of the above-mentioned compounds a 3% aqueous solution of saccharose was always used for comparison.
# The further determination of the relative sweetening power was continued according to the methods of R. Pauli [Chemiker Zeitung 44, 744 (1920)] and T. Paul [Chemiker-Zeitung 45 38 (1921)]. Each test series was tested by 4 taste testers.
# [14] = usual concentrations, corresponding to a 2-10% solution of saccharose; cited from earlier work
# [15] = heretofore known sweetening agents; cited from earlier work
# [16] = Batzinger, On and Bueding, Science 198, 944 (1977); cited from earlier work
smiles,measurement,setting,value
"Cc1cc2c(s1)S(=O)(=O)NC2=O [Compound C, 5-Methyl-thieno[3,2-d]isothiazole-3-(2H)-one-1,1-dioxide sodium salt]",release of base substitutions,"[1]; S. typhimurium TA 1535, TA 100",do not release base substitutions
same,release of frame-shift mutations,"[1]; S. typhimurium TA 1537, TA 1538, TA 98",do not release
same,increase in the spontaneous mutation rate,"[1]; Salmonella strains, C 0.1 and 0.5 mgm/plate, D 5-20 mg/plate, with and without activating system",did not lead to an increase
same,colonies counted on the substance plates,[1]; all test strains,within the spontaneous range
same,effect of the enzyme induction and of the activating fraction on the reverse mutation rate,"[1]; all tested strains, S-9 of normal and Aroclor 1254 induced rats",not detectable
same,mutagenic potential,[1]; conclusion over all tested strains,do not indicate a mutagenic potential
same,Average Value of Evaluation Points,"[2]; concentration 1:25000, sodium salt",2.0
same,Average Value of Evaluation Points,"[2]; concentration 1:50000, sodium salt",1.2
same,effect on blood pressure,anesthetized cats,no effect
same,effect on heart rate,anesthetized cats,no effect
same,effect on respiration,anesthetized cats,no effect
same,secretion of Cl^-,water-loaded male rats,no effect
same,secretion of K^+,water-loaded male rats,no effect
same,secretion of Na^+,water-loaded male rats,no effect
same,secretion of liquid,water-loaded male rats,no effect
same,effect on contractility,[3],no effect
same,effect on frequency,[3],no effect
same,ability to hold themselves in rotating cylinders,mice [4],able to hold themselves in rotating cylinders
same,muscle-relaxing and coordination inhibitory effects,mice [4],no muscle-relaxing and coordination inhibitory effects
same,"Animals which died within the observation time, 1 day",rat,0 animals
same,"Animals which died within the observation time, 7 days",rat,0 animals
same,influence on electroshock convulsion,mice [5],does not influence
same,bacteriostatic effect,bacteria,neither bacteriostatically nor fungistatically effective
same,influence on reserpine hypothermia,male mice,no influence
same,effect on body temperature,Body temperature,no effect
same,taste quality compared with saccharose (cane sugar),[6],achieve the taste quality of saccharose
same,effect on spontaneous motility,rats,did not show any effect on the spontaneous motility
same,inhibition of the microorganism growth,microorganism growth,did not show any inhibition
same,effect on ADP-induced aggregation of thrombozytes,[7],no effect
same,effect on collagen-induced aggregation of thrombozytes,[7],no effect
same,effect on thrombine-induced aggregation of thrombozytes,[7],no effect
same,influence on the defensive reactions to pain stimuli,mice [8],did not show any influence
same,duration of hexobarbital narcosis (loss of the righting reflex),mice [9],not influenced
same,ulcerations in the intestinal tract,[10],does not cause any ulcerations
same,influence on spontaneous motility,mice [11],does not influence the spontaneous motility of mice
same,local anesthesia,eye of the rabbit,no local anesthesia
same,mydriasis,eye of the rabbit,no mydriasis
same,redness of the conjunctiva,eye of the rabbit,no redness of the conjunctiva
same,release of base substitutions,[12]; E. coli WP2 (P),do not release base substitutions
same,increase in the spontaneous mutation rate,"[12]; E. coli WP 2 (P), C 0.1 and 0.5 mgm/plate, D 5-20 mg/plate, with and without activating system",did not lead to an increase
same,fungistatic effect,fungi,neither bacteriostatically nor fungistatically effective
"O=C1NS(=O)(=O)c2ccccc21 [V, Saccharin, reference compound]",Average Value of Evaluation Points,[2]; concentration 1:25000,2.4
same,Average Value of Evaluation Points,[2]; concentration 1:50000,1.2
same,Average Value of Evaluation Points,[2]; concentration 1:100000,0.4
same,Relative Sweetening Power (Saccharose = 1),[13],550
same,relative sweetening power of saccharin,[14],200 to 700
same,side-taste or after-taste,[15],unpleasant after-taste
same,taste quality compared with saccharose,[15],do not have the taste quality of saccharose
same,mutagenic effect,[16],shows a mutagenic effect
